Measurements taken from PMC7766155, “Improved Stability and Activity of a Marine Peptide-N6NH2 against Edwardsiella tarda and Its Preliminary Application in Fish” (Marine Drugs, 2020).
In brackets after ≈: the same amount, converted by molar mass. Several values for one entry are separate records, joined by “and”; a condition that tells them apart may be missing. Equal entries are not always repeated. Where two headings read alike, the source gives them in different places. Where a SMILES comes first, the peptide text is derived from it. Bridges are numbered along the chain shown (N, C = ends).

Tests used:
E. tarda [1] = experiment: Kirby-Bauer disk diffusion susceptibility; format: cell-based, Edwardsiella tarda; conditions: disc diffusion, MHA, 37 °C 18 h, CLSI standard; 27 antibiotics; Supplementary Table S2
Method: The susceptibility of E. tarda to antibiotics was determined by the Kirby-Bauer disk diffusion method according to Clinical Laboratory Standards Institute (CLSI). E. tarda was cultured in TSB medium (10 mL) at 28 °C overnight. The MHA petri dish plates were seeded with a 250 μL bacterial solution (OD600nm = 1.0). […] The diameter of the bacterial inhibition zone was measured, and the results were determined according to the standard of CLSI.

[2] = tested on: Gram-negative bacteria (except Pseudomonas aeruginosa CICC21630); experiment: MIC, range over strains; format: cell-based; conditions: range over Gram-negative strains of Table 2
Method: (§1) All tests were conducted in triplicate.

E. coli CVCCO157 = conditions: broth microdilution, MHB, 1 × 10^5 CFU/mL, 37 °C 18–24 h, n = 3; some N6 data from ref 19
E. coli CVCC1515 = conditions: CVCC1515
E. tarda [3] = format: cell-based, Edwardsiella tarda
Method: as §1

Staphylococcus hyicus = experiment: microbe, parasite or virus in culture; format: cell-based
Method: as §1

S. aureus ATCC25923 = conditions: ATCC25923
S. pullorum CVCC1789 = conditions: CVCC1789
S. enteritidis CVCC3377 = conditions: CVCC3377
E. tarda and A. veronii = format: cell-based
Method: as §1

[4] = tested on: Staphylococcus aureus ATCC43300; conditions: ATCC43300
[5] = tested on: Pseudomonas aeruginosa CICC21630; conditions: CICC21630
S. aureus ATCC546 = conditions: ATCC546
E. tarda [6] = experiment: Fish peritonitis model, bacterial translocation (organ load); format: in vivo, O. niloticus; conditions: 1.29 mg/kg norfloxacin i.p. once; 24 h after treatment
Method: Sixty fish were randomly divided into 6 groups (10 fish/group). […] The remaining untreated group served as negative control. The fish injected with saline were used as the blank control. The challenge and treatment were performed as described above. […] Other fish were used to analyze the effects on tissues and immune genes.

[7] = tested on: Escherichia coli, S. typhimurium, S. enteritidis and S. pullorum; experiment: organism not typed; format: cell-based; conditions: range over other Gram-negative strains of Table 2; read-out: MIC
Method: as §1

E. tarda [8] = experiment: Fish peritonitis model, histopathology; format: in vivo, O. niloticus; conditions: N6NH2 (10 mg/kg) or norfloxacin 1.29 mg/kg; hematoxylin and eosin, light microscope; 3 fish/group
Method: The spleen, kidney, liver, intestine and brain samples (3 fish/group) were used for tissue section observation. After 24 h of fixation, all samples were dehydrated with 75–95% ethanol, embedded in paraffin and cut to 6 μm thin sections. Sections were stained with hematoxylin and eosin and observed by a light microscope.

[9] = tested on: inner membrane of E. tarda; experiment: Inner membrane penetration, PI staining, flow cytometry; format: cell-based, Edwardsiella tarda; conditions: norfloxacin-treated control, all time points of Figure 3B
Method: After washing twice with PBS, the cells were incubated with PI (50 μg/mL) for 15 min and analyzed using a FACS Calibur Flow Cytometer (BD, San Jose, CA, USA).

E. tarda [10] = experiment: pH stability (residual antibacterial activity, inhibition zone); format: physicochemical, Edwardsiella tarda; conditions: pH values of 2–10, 3 h incubation; N6 128 μg/mL, norfloxacin 10 μg/mL; inhibition zone method vs E. tarda
Method: (§2) To evaluate the thermal stability of peptides, N6 and N6NH2 were incubated for 1 h at 4, 20, 40, 60, 80 and 100 °C. To measure the pH stability, peptides were incubated for 3 h in 100 mM glycine-HCl buffer (pH 2.0), sodium acetate buffer (pH 4.0), sodium phosphate buffer (pH 6.0), Tris-HCl buffer (pH 8.0) or glycine-NaOH buffer (pH 10.0). In addition, peptides were incubated for 4 h at 37 °C in pepsin (3,000 U/mg, pH 2.0) and trypsin (250 U/mg, pH 8.0) (10:1, w/w) solutions, respectively. […] After treatment, 30 μL of solutions were taken out to determine the antibacterial activity of peptides against E. tarda by the inhibition zone method. The untreated peptides were used as the control. All tests were conducted in triplicate.

E. tarda cells = experiment: TEM ultrastructure; format: cell-based, Edwardsiella tarda; conditions: 4 × MIC for 2 h, 1 × 10^8 CFU/mL
Method: Mid-log phase E. tarda cells (1 × 10^8 CFU/mL) were incubated with 4 × MIC N6 or N6NH2 for 2 h at 37 °C. The bacterial cells were then centrifuged, washed three times with 0.1 M PBS (pH 7.2) and fixed overnight at 4 °C with 2.5% glutaraldehyde. After washing twice with PBS, the cells were post-fixed with 1% osmium tetroxide (OsO4) for 2 h, dehydrated in a graded ethanol series (from 50% to 100%) for 15 min each time and dried by CO2. The cell samples were sputtered with gold-palladium and observed on a QUANTA200 electron microscopy (FEI, Philips, The Netherlands).
The bacterial cells were treated with peptides as described above, fixed with 2.5% glutaraldehyde at 4 °C overnight and post-fixed with 1% OsO4 for 1 h. After washing three times with PBS, the cells were dehydrated with a graded acetone series (50%, 70%, 85%, 95% and 100%, for 7 min each time) and immersed in mixtures of acetone and resin (3:1, 1:1 and 1:3, 40 min each time). The samples were infiltrated with a pure epoxy resin overnight, embedded in capsules containing embedding medium and polymerized at 45 °C for 3 h and at 65 °C for 24 h, respectively. Thin sections were cut using an ultramicrotome, stained with 1% uranyl acetate and examined by a JEM1400 (JEDL, Tokyo, Japan).

E. tarda [11] = experiment: Fish peritonitis model, survival; format: in vivo, O. niloticus; conditions: 1.29 mg/kg norfloxacin i.p. once
Method: The fish (O. niloticus, Gift strain, 20 g mean weight) were purchased from Beijing Fisheries Technology Extension Center, Hainan Station, China and were acclimated at 25 ± 1 °C. The fish were fed twice daily with commercial pellets for two weeks before experiments.
O. niloticus (6 fish/group) were intraperitoneally injected with LC100 of E. tarda, followed 30 min later by 200 µL N6NH2 (2.5, 5, and 10 mg/kg, respectively). Norfloxacin was used as a positive control. Fish injected with only bacteria or saline served as negative (untreated) or blank (unchallenged) controls, respectively. […] The fish survival rate was recorded daily for 5 d. Two independent experiments were conducted, including pre-experiment and formal experiment.

Edwardsiella tarda = experiment: MIC, broth microdilution
E. tarda [12] = experiment: Thermal stability (residual antibacterial activity, inhibition zone); format: physicochemical, Edwardsiella tarda; conditions: incubated 1 h at 20, 40, 60, 80 or 100 °C; N6NH2 64 μg/mL, norfloxacin 10 μg/mL; inhibition zone method; triplicate
Method: as §2

RAW 264.7 macrophages = format: cell-based, mouse; conditions: 48 h
Method: The colorimetric MTT assay was used to determine the effect of peptides on the viability of murine peritoneal RAW 264.7 macrophage cells. Macrophage cells were added into 96-well plates (5 × 10^3 cells/well) and incubated for 24 h at 37 °C (5% (v/v) CO2/air). A series of peptide solutions were added into the cells and incubated for 48 h. The untreated cells were used as the control (Acontrol). The MTT solution was added into plates, incubated for 4 h, and then removed from plates. Dimethyl sulfoxide (DMSO) was then added into plates and the absorbance was measured at 570 nm in a spectrophotometer. The cell viability was calculated using the following formula: Survival rate (%) = […] × 100.

[13] = LPS binding, BODIPY-TR-cadaverine displacement; set-up: species or system E. coli; conditions: 0.5 µM LPS, 5 μM BC, Tris buffer pH 7.4; 0.049 μM to 50 μM; excitation/emission 580/620 nm

CC1(C)S[C@@H]2[C@H](NC(=O)[C@H](N)c3ccc(O)cc3)C(=O)N2[C@H]1C(=O)O [amoxicillin]
susceptibility of E. tarda to antibiotics (E. tarda [1]): resistance

bacitracin
susceptibility of E. tarda to antibiotics (E. tarda [1]): resistance

CC(C)[C@@H]1NC(=O)CNC(=O)[C@H](CC(N)=O)NC(=O)[C@H](CCCNC(=N)N)NC(=O)[C@H](Cc2ccc(O)cc2)NC(=O)[C@H](C(C)C)NC(=O)[C@@H](NC(=O)[C@@H](NC(=O)[C@H](CC(N)=O)NC(=O)[C@H](Cc2c[nH]c3ccccc23)NC(=O)[C@H](C)NC(=O)[C@H](Cc2ccccc2)NC(=O)CN)C(C)C)CSSC[C@@H](C(=O)N[C@@H](Cc2c[nH]cn2)C(=O)N[C@@H](CCCNC(=N)N)C(=O)N[C@@H](CCCNC(=N)N)C(=O)N[C@@H](C)C(=O)N[C@@H](CC(N)=O)C(N)=O)NC(=O)[C@H](C(C)C)NC(=O)[C@H](CCCNC(=N)N)NC1=O [Peptide N6NH2] (H-GFAWNVCVYRNGVRVCHRRAN-NH2; disulfide 7-16)
MIC [2]: 0.8 to 3.2 µg/mL | MIC (E. coli CVCCO157): 0.646 µM (≈ 1.6 µg/mL) | MIC (E. coli CVCC1515): 0.323 µM (≈ 0.799 µg/mL) | MIC (S. hyicus 437-2): 5.17 µM (≈ 12.8 µg/mL) | MBC (E. tarda [3]): 6.4 µg/mL (≈ 2.59 µM) | MIC (Staphylococcus hyicus): 3.2 to 12.8 µg/mL | MIC (S. aureus ATCC25923): 5.17 µM (≈ 12.8 µg/mL) | MIC (S. pullorum CVCC1789): 1.29 µM (≈ 3.19 µg/mL) | MIC (S. enteritidis CVCC3377): 0.323 µM (≈ 0.799 µg/mL) | MIC (E. tarda and A. veronii): 0.65 to 1.29 µM | MIC [4]: 2.58 µM (≈ 6.39 µg/mL) | MIC [5]: 10.34 µM (≈ 25.6 µg/mL) | MIC (S. hyicus 15095): 1.29 µM (≈ 3.19 µg/mL) | MIC (S. aureus ATCC546): 2.58 µM (≈ 6.39 µg/mL)

CCn1cc(C(=O)O)c(=O)c2cc(F)c(N3CCNCC3)cc21 [Norfloxacin]
number of bacteria in organs (blood, spleen, kidney, liver) (E. tarda [6]): did not decrease in any organs except the liver | MIC [7]: 0.06 to 1 µg/mL (≈ 0.188 to 3.13 µM) | histological findings in liver, kidney and intestine (E. tarda [8]): obvious pathological changes were found in organs | percentage of E. tarda stained with PI [9]: less than 1% | antibacterial activity at different pH values (E. tarda [10]): strong antibacterial activity | abnormal cells (TEM) (E. tarda cells): not significantly affected | MIC (Staphylococcus hyicus; Staphylococcus hyicus, range over S. hyicus strains of Table 2, read-out: MIC): 4 to 16 µg/mL (≈ 12.5 to 50.1 µM) | survival rate of fish (E. tarda [11]; 0.5 h after E. tarda 1.0 × 10^9 CFU/mL i.p., within 2 d, 6 fish/group): 16.7% | survival rate of fish (E. tarda [11]; time not stated in the sentence (survival recorded for 5 d)): 16.7% | MIC (Edwardsiella tarda): 0.5 µg/mL and 1.57 µM | antimicrobial activity against E. tarda after exposure to temperature (E. tarda [12]): did not change

CC(C)[C@@H]1NC(=O)CNC(=O)[C@H](CC(N)=O)NC(=O)[C@H](CCCNC(=N)N)NC(=O)[C@H](Cc2ccc(O)cc2)NC(=O)[C@H](C(C)C)NC(=O)[C@@H](NC(=O)[C@@H](NC(=O)[C@H](CC(N)=O)NC(=O)[C@H](Cc2c[nH]c3ccccc23)NC(=O)[C@H](C)NC(=O)[C@H](Cc2ccccc2)NC(=O)CN)C(C)C)CSSC[C@@H](C(=O)N[C@@H](Cc2cnc[nH]2)C(=O)N[C@@H](CCCNC(=N)N)C(=O)N[C@@H](CCCNC(=N)N)C(=O)N[C@@H](C)C(=O)N[C@@H](CC(N)=O)C(N)=O)NC(=O)[C@H](C(C)C)NC(=O)[C@H](CCCNC(=N)N)NC1=O [Peptide N6NH2] (H-GFAWNVCVYRNGVRVCHRRAN-NH2; disulfide 7-16)
cell survival rate (RAW 264.7 macrophages): > 93.35%

O=C1OCCN1/N=C/c1ccc([N+](=O)[O-])o1 [furazolidone]
susceptibility of E. tarda to antibiotics (E. tarda [1]): resistance

CC(C)[C@@H]1NC(=O)CNC(=O)[C@H](CC(N)=O)NC(=O)[C@H](CCCNC(=N)N)NC(=O)[C@H](Cc2ccc(O)cc2)NC(=O)[C@H](C(C)C)NC(=O)[C@@H](NC(=O)[C@@H](NC(=O)[C@H](CC(N)=O)NC(=O)[C@H](Cc2c[nH]c3ccccc23)NC(=O)[C@H](C)NC(=O)[C@H](Cc2ccccc2)NC(=O)CN)C(C)C)CSSC[C@@H](C(=O)N[C@@H](Cc2cnc[nH]2)C(=O)N[C@@H](CCCNC(=N)N)C(=O)N[C@@H](CCCNC(=N)N)C(=O)N[C@@H](C)C(=O)N[C@@H](CC(N)=O)C(=O)O)NC(=O)[C@H](C(C)C)NC(=O)[C@H](CCCNC(=N)N)NC1=O [Peptide N6] (H-GFAWNVCVYRNGVRVCHRRAN-OH; disulfide 7-16)
cell survival rate (RAW 264.7 macrophages): > 93.35%

CC1(C)S[C@@H]2[C@H](NC(=O)[C@H](N)c3ccccc3)C(=O)N2[C@H]1C(=O)O [ampicillin, reference compound]
binding to LPS (displacement of BC probe) [13]: neither ampicillin nor norfloxacin replaced the BC probe or bound to LPS
